The record followed here is patent publication US20030162661A1, “2,4-Diamino-1,3,5-triazines, their preparation, and their use as herbicides and plant growth regulators” (priority 1998, published 2003).

What all share (type): in vivo
The test system of test [1] is harmful plants which are typical for rice cultivation, such as Cyperus monti, Echinochloa crus-galli and Sagittaria pygmaea. In words: Effect on harmful plants in rice (paddy rice conditions, visual scoring). The settings on record: applied into the flooding water, various dosages, scored visually approximately three weeks after application. Here is the method:
3. Effect on Harmful Plants in Rice
Transplanted and seeded rice and typical broad-leaved and monocotyledonous rice weeds are grown in the greenhouse to the three-leaf stage (Echinochloa crus- galli 1.5 leaf) under paddy rice conditions (depth of the water: 2-3 cm) in sealed plastic pots. They are then treated with the compounds according to the invention. To this end, the formulated active substances are suspended, dissolved or emulsified in water and applied in various dosages by pouring into the water with which the test plants are flooded. After this treatment, the test plants are placed in the greenhouse under ideal growth conditions and kept thus over the entire experimental period.
Approximately three weeks after application, the test is evalued by means of visually scoring the damage to the plants by comparison with untreated controls.

For test [2], the system named is harmful plants such as Stellaria media, Lolium multiflorum, Amaranthus retroflexus, Sinapis alba, Avena sativa and Setaria viridis. In words: Pre-emergence effect on weeds (greenhouse pot test, visual scoring). The settings on record: applied pre-emergence at an application rate of 1 kg or less of active substance per hectare; scored visually after 3 to 4 weeks vs untreated controls. From the text: 1 Pre-emergence Effect on Weeds
Seeds or rhizome pieces of monocotyledonous and dicotyledonous weeds plants are placed in sandy loam soil in plastic pots and covered with soil. The compounds according to the invention which are formulated in the form of wettable powders or emulsion concentrates are then applied to the surface of the soil cover in the form of an aqueous suspension or emulsion at an application rate of 600 to 800 l of water/ha (converted), in various dosages.

The test system of test [3] is harmful plants such as Sinapis alba, Echinochloa crus- galli, Lolium multiflorum, Stellaria media, Cyperus iria, Amaranthus retroflexus, Setaria viridis and …. Put plainly: Post-emergence effect on weeds (greenhouse pot test, visual scoring). The settings on record: applied post-emergence (three-leaf stage) at an application rate of 1 kg and less of active substance per hectare; scored visually after about 3 to 4 weeks vs untreated controls. The protocol: 2. Post-emergence Effect on Weeds
Seeds or rhizome pieces of monocotyledonous and dicotyledonous weeds are placed in sandy loam soil in plastic pots, covered with soil and grown in the greenhouse under good growth conditions. Three weeks after sowing, the test plants are treated in the three-leaf stage. The compounds according to the invention which are formulated as wettable powders or as emulsion concentrates are sprayed in various dosages on the green parts of the plants at an application rate of 600 to 800 l of water/ha (converted). After the test plants have remained in the greenhouse for about 3 to 4 weeks under ideal growth conditions, the effect of the preparations is scored visually by comparison with untreated controls. The agents according to the invention also have a good herbicidal post-emergence action against a broad range of economically important grass weeds and dicotyledonous weeds.

Consider `CC(C)c1nc(N)nc(NC(CCc2ccccc2)C2CC2)n1` (stereo not drawn) [Example 9-9], for which the “herbicidal action against harmful plants typical for rice cultivation” value (from here on “herbicidal action … for rice cultivation”) in test [1] is “good herbicidal action”. Moreover, the “herbicidal action against harmful plants, pre-emergence” value (shortened to “herbicidal action … pre-emergence”) in test [2] was “very good herbicidal action”. In test [3], the “herbicidal action against harmful plants, post-emergence” value (shortened to “herbicidal action … post-emergence”) was “very good herbicidal action”.
As for `CC(C)c1nc(N)nc(NC(CCc2ccccc2)C2CCC2)n1` (stereo not drawn) [Example 4-1], the “herbicidal action … for rice cultivation” value in test [1] is “good herbicidal action”. Besides, the “herbicidal action … pre-emergence” value in test [2] is on record as “very good herbicidal action”. Further, in test [3], the “herbicidal action … post-emergence” value is “very good herbicidal action”.
Consider `CC(C)(C#N)c1nc(N)nc(NC(CCc2ccccc2)C2CC2)n1` (stereo not drawn) [Example 9-4], for which the “herbicidal action … for rice cultivation” value in test [1] is given as “good herbicidal action”. Further, in test [2], the “herbicidal action … pre-emergence” value is reported as “very good herbicidal action”. In addition, the “herbicidal action … post-emergence” value in test [3] is reported as “very good herbicidal action”.
In the case of `COc1cccc(CCC(Nc2nc(N)nc(C(C)C)n2)C2CCC2)c1` (stereo not drawn) [Example 4-23], the “herbicidal action … for rice cultivation” value in test [1] is “good herbicidal action”. Further, the “herbicidal action … pre-emergence” value in test [2] was “very good herbicidal action”. Besides, in test [3], the “herbicidal action … post-emergence” value is listed as “very good herbicidal action”.
For `CC(C)(F)c1nc(N)nc(NC(CCc2cccc(F)c2)C2CC2)n1` (stereo not drawn) [Example 9-5], the “herbicidal action … for rice cultivation” value in test [1] is “good herbicidal action”. The “herbicidal action … pre-emergence” value in test [2] was “very good herbicidal action”. Further, the “herbicidal action … post-emergence” value in test [3] is “very good herbicidal action”.
For the molecule `CC(C)(F)c1nc(N)nc(NC(CCc2ccccc2)C2CC2)n1` (stereo not drawn) [Example 9-10], the “herbicidal action … for rice cultivation” value in test [1] is listed as “good herbicidal action”. Further, the “herbicidal action … pre-emergence” value in test [2] is given as “very good herbicidal action”. Further, in test [3], the “herbicidal action … post-emergence” value is “very good herbicidal action”.
With `COc1cccc(CCC(Nc2nc(N)nc(C(C)(C)F)n2)C2CCC2)c1` (stereo not drawn) [Example 4-24], the “herbicidal action … for rice cultivation” value in test [1] is recorded as “good herbicidal action”. Further, the “herbicidal action … pre-emergence” value in test [2] was “very good herbicidal action”. Moreover, in test [3], the “herbicidal action … post-emergence” value is recorded as “very good herbicidal action”.
`CC(C)c1nc(N)nc(NC(CCc2cccc(Cl)c2)C2CC2)n1` (stereo not drawn) [Example 9-7]: in test [1], the “herbicidal action … for rice cultivation” value is recorded as “good herbicidal action”. Also, the “herbicidal action … pre-emergence” value in test [2] is “very good herbicidal action”. Further, the “herbicidal action … post-emergence” value in test [3] is reported as “very good herbicidal action”.
With `Cc1cccc(CCC(Nc2nc(N)nc(C(C)C)n2)C2CCC2)c1` (stereo not drawn) [Example 4-14], the “herbicidal action … for rice cultivation” value in test [1] is “good herbicidal action”. Besides, the “herbicidal action … pre-emergence” value in test [2] is on record as “very good herbicidal action”. Further, the “herbicidal action … post-emergence” value in test [3] is reported as “very good herbicidal action”.
Regarding `Cc1cccc(CCC(Nc2nc(N)nc(C(C)(C)F)n2)C2CCC2)c1` (stereo not drawn) [Example 4-15], in test [1], the “herbicidal action … for rice cultivation” value is “good herbicidal action”. Also, in test [2], the “herbicidal action … pre-emergence” value is on record as “very good herbicidal action”. In test [3], the “herbicidal action … post-emergence” value is “very good herbicidal action”.
For `CC(C)(F)c1nc(N)nc(NC(CCc2ccccc2)C2CCC2)n1` (stereo not drawn) [Example 4-2, 2-Amino-4-(1-fluoro-1-methylethyl)-6-(3-phenyl-1-cyclobutyl-1-propylamino)-1,3,5-triazine], the “herbicidal action … for rice cultivation” value in test [1] was “good herbicidal action”. The “herbicidal action … pre-emergence” value in test [2] is given as “very good herbicidal action”. In test [3], the “herbicidal action … post-emergence” value was “very good herbicidal action”.
